2 compounds from EPA's ToxValDB 9.5 (doi:10.2903/j.efsa.2018.5405) can be followed below.

One series deals with Tagia sp. To be noted: chronic/long-term; reproduction.
The next series deals with Oncorhynchus mykiss. To be noted: for LC50: acute, duration: 96 hours, mortality.
Another series deals with Colinus virginianus. As to conditions: acute; oral; mortality.
The subject of another series is Neomysis kadiakensis. As to conditions: chronic/long-term; duration: 28 days; development.
A further series deals with Hypoaspis aculeifer. To be noted: chronic/long-term; reproduction.
A further series deals with Anas platyrhynchos. As to conditions: reproductive.
In the next series the test system is Bibionidae. To be noted: chronic/long-term; duration: 28 days; development.
The subject of a further series is Apis mellifera. To be noted: acute, mortality.
For a further series, the system named is Typhlodromus pyri. In words: LR50; higher = less toxic. To be noted: acute; mortality.

≈ marks a conversion by molar mass, not a printed value.

A word on the LC50: it is the concentration lethal to half of the exposed cells or organisms. As usually defined, the NOAEL is the highest tested level that showed no adverse finding.

Turning to `O=C(O)c1ccc(F)c(Oc2ccccc2)c1` [4-Fluoro-3-phenoxybenzoic acid], the NOEC in the series with Tagia sp. stood at 2.6 mg/kg. In the series with Oncorhynchus mykiss, this compound had an LC50 of 4.06 µg/mL (≈ 17.5 µM).

`CC1(C)C(C=C(Cl)Cl)[C@@H]1C(=O)O[C@@H](C#N)c1ccc(F)c(Oc2ccccc2)c1` (stereo partly drawn) [beta-Cyfluthrin]: the LD50 was more than 8.79 mg/kg-day in the series on Rattus norvegicus (acute, oral, mortality); more than 58.6 mg/kg-day in the series on Colinus virginianus; 0.012 µg/piece with Apis mellifera (dermal); 0.05 µg/piece with Apis mellifera (oral, unspecified). In addition, the NOAEL in the series with Rattus norvegicus (chronic) stood at 1.39 mg/kg-day; in the series on Rattus norvegicus (subchronic, duration: 13 weeks, inhalation, behavior), 0.02 mg/kg-day; in the series on Anas platyrhynchos, 2.6 mg/kg-day. Further, the NOEC in the series with Neomysis kadiakensis stood at 0.00041 µg/L; in the series with Hypoaspis aculeifer, 0.485 mg/kg; in the series on Bibionidae it was 0.0057 µg/L; in the series with Oncorhynchus mykiss (chronic/long-term, duration: 58 days, growth), 0.0042 µg/L. The LC50 in the series on Oncorhynchus mykiss was determined as 6.8e-05 µg/mL (≈ 0.000157 µM). Besides, the LR50 in the series on Typhlodromus pyri stood at 0.0025 g/ha.
